Measured values taken from US20240415787A1, “COMPOSITION FOR TREATING OR PREVENTING OBESITY OR OBESITY-ASSOCIATED LIVER DISEASE, COMPRISING VERBENONE DERIVATIVES” (SHIN POONG PHARMACEUTICAL CO., LTD., priority 2021, published 2024).

Key:
VAT inflammation = assay: 18F-FDG PET/CT imaging of VAT metabolic activity (SUVmax); type: in vivo, mice
Source text: (§1) Male C57BL/6 mice (6 weeks old, 20 g body weight) were purchased from Orient-Bio (Seongnam, Korea). All mice were maintained in a 12-hr light/dark cycle and fed ad libitum. To minimize environmental differences, mice were allowed 2 weeks for acclimation before the start of experiments. For diet-induced NAFLD experiments, mice were fed either an HFD (60% of kcal in fat, D12492, Research Diets, NJ, USA) or a normal chow diet (ND) for 20 weeks. All experimental protocols and procedures were approved by the Ethics Committee and the Institutional Animal Care and Use Committee of Korea University College of Medicine (Approval No. KOREA-2019-0026).
The mice were subdivided into vehicle and SP-1154 (50 mg/kg as SP-8356) groups. SP-1154 was administrated to the mice via tab water and the dose of drug was determined by daily water consumption (6 mL/day) and body weights, which were measured every week. […]
Images were analyzed by two experienced nuclear medicine physicians (KP and HWK) using commercially available software (Syngo. via, Siemens Healthcare, Erlangen, Germany). […] For the evaluation of VAT metabolic activity, region on interest (ROI) was placed along the intra-abdominal fat on each slice and the maximum standardized uptake value (SUVmax) was measured, as previously described. […]

[1] = test system: phosphorylation of Smad2/3; assay: Western blot of Smad2/3 phosphorylation in VAT of HFD-induced mice; type: in vivo; conditions: 50 mg/kg as SP-8356 via water, 20 weeks, vs HFD
Source text: as §1
(§2) The mice were subdivided into vehicle and SP-1154 (50 mg/kg as SP-8356) groups. SP-1154 was administrated to the mice via tab water and the dose of drug was determined by daily water consumption (6 mL/day) and body weights, which were measured every week.
VAT was lysed in RIPA buffer (Thermo Fisher Scientific, Waltham, MA, USA) with protease inhibitor (GeneDepot, Barker, TX, USA). The protein concentration was quantified using the BCA protein assay kit (Thermo Fisher Scientific, Waltham, MA, USA). […] Protein bands were detected using the ECL assay kit (GE Healthcare, Chicago, IL, USA).

[2] = Blood analysis (serum AST, ALT, total cholesterol); type: in vivo, mice
Source text: as §1, §2
Blood samples were collected immediately before sacrifice. The levels of AST (aspartate aminotransferase), ALT (alanine aminotransferase), total cholesterol, and triglyceride in serum were measured using a FUJI DRI-Chemiclinical Chemistry Analyzer (FUJI DRI-CHEM 4000i, Fuji Film, Tokyo, Japan).

[3] = Solubility in saline / water; type: physicochemical
GLUT4 = GLUT4 expression in VAT (immunostaining, qRT-PCR); type: in vivo, mice; conditions: 20 weeks of HFD, vs HFD
Source text: as §1, §2
(§3) Tissues were incubated with anti-CD68 (ab 125212, Abcam, Cambridge, MA, USA), anti-glucose transporter 1 (GLUT1) (ab652, Abcam, Cambridge, MA, USA), and anti-GLUT4 (ab654, Abcam, MA, USA). Alexa Fluor 594 (Invitrogen, Carlsbad, CA, USA) was used as secondary antibody. All fluorescence images were acquired with Zeiss Axio Scan.Z1 (Carl Zeiss, Jena, Germany). […]

[4] = test system: macrophage infiltration into VAT; assay: Flow cytometry of F4/80+CD11b+ macrophages in VAT; type: in vivo, mice; conditions: vs HFD
Source text: as §1, §2
Cells were suspended in 0.1 mL of fluorescence-activated cell sorting (FACS) buffer (phosphate-buffered saline; PBS with 5% fetal bovine serum; FBS) and incubated with Fc blocker (BD Bioscience, San Jose, CA, USA) at room temperature for 10 min, followed by an additional 30 min with anti-CD45 APC-Cy7, anti-F4/80 PE, and anti-CD11b-PerCP-Cy5.5 (Biolegend, San Diego, CA, USA) antibodies according to the manufacturer's recommendation. […]

TGF-βR1 = assay: qRT-PCR of TGF-βR1 mRNA in VAT of HFD-induced mice; type: in vivo; conditions: HFD vs HFD with SP-1154, 20 weeks
Source text: as §1, §2
(§4) Total RNA was extracted from VAT samples using the Trizol reagent (Invitrogen, Carlsbad, CA, USA) and the generation of cDNA was performed using the reverse transcription reaction kit (iScript cDNA synthesis kit, Bio-Rad, Hercules, CA, USA). Gene expression was assessed using SYBR Green mixture (iQTM SYBR Green Supermix, Bio-Rad, Hercules, CA, USA) and an iCycler PCR thermocycler (Bio-Rad, Hercules, CA, USA). […]

[5] = test system: HFD-induced liver steatosis; assay: Liver weight and liver steatosis score of harvested liver; type: in vivo, mice; conditions: vs HFD
Source text: as §1, §2
(§5) Mice were sacrificed after 20 weeks of drug administration by using the CO2 chamber. […] Adipocyte surface area of a minimum of 300 cells per group was measured using ImageJ software (version 1.45 s, Bethesda, MD, USA), as previously described. Hepatic steatosis was assessed using three-scale scoring system based on H&E-stained liver: score 1 (mild, 5-33%); score 2 (moderate, 34-66%); score 3 (severe, >66%). […]

[6] = Insulin tolerance test (ITT); type: in vivo; conditions: HFD-induced mice; vs HFD
Source text: as §1, §2
(§6) For GTT, glucose (2 g/kg body weight) was orally administered to mice after overnight fasting, and blood was drawn to measure glucose concentrations at indicated times thereafter. For ITT, insulin (1.5 insulin units/kg body weight) was intraperitoneally injected into mice after fasting for 4 hours, and blood was drawn to measure blood glucose at indicated times. Insulin concentrations were measured at each indicated time in serum collected from the mice subjected to GTT.

CD68 = CD68 immunohistochemistry of VAT; type: in vivo, mice; conditions: IHC on harvested VAT; vs HFD
Source text: as §1, §2, §5

[7] = Glucose tolerance test (GTT); type: in vivo; conditions: HFD-induced mice; vs HFD
Source text: as §1, §2, §6

[8] = test system: HFD-induced liver steatosis; assay: CT measurement of liver density (Hounsfield units); type: in vivo, mice; conditions: measured in HU, vs HFD
Source text: as §1, §2
^18F-FDG PET/CT was performed using a dedicated small animal PET/CT scanner (eXplore Vista DR PET/CT, GE Healthcare, Milwaukee, WI, USA). Mice were not fasted before taking examination and anesthetized with 2% isoflurane in oxygen (1 L/min) during the examination. PET/CT image acquisition was started 40 min after the injection of 18.5 MBq/0.1 mL of ^18F-FDG via the tail vein. Static PET images were acquired for 20 min, followed by CT scan (40 kV, 250 uA). […]

[9] = Body weight and food intake during 20-week HFD study; type: in vivo; conditions: HFD-induced mice, 50 mg/kg as SP-8356, 20 weeks; vs HFD
Source text: as §1, §2

GLUT1 = GLUT1 expression in VAT (immunostaining, qRT-PCR); type: in vivo, mice; conditions: 20 weeks of HFD, vs HFD
Source text: as §1, §2, §3

[10] = Conversion of prodrug to SP-8356
adipocytes in VAT = assay: Histopathology of VAT: adipocyte surface area; type: in vivo, mice; conditions: 20 weeks of HFD, vs HFD
Source text: as §1, §2, §5

C-reactive protein (CRP) = assay: ELISA of serum C-reactive protein; type: in vivo, mice
Source text: as §1, §2
Serum concentration of C-reactive protein (CRP) was determined using a commercially available ELISA kit (ab157712, Abcam, Cambridge, MA, USA) according to the manufacturer's instruction.

TGF-β1 = assay: qRT-PCR of TGF-β1 mRNA in VAT of HFD-induced mice; type: in vivo; conditions: HFD vs HFD with SP-1154, 20 weeks
Source text: as §1, §2, §4

[11] = Efficacy of suspension versus soluble prodrug form; conditions: suspension in saline
[12] = normal mice vs SP-1154-treated mice

COc1cc(/C=C/C2=CC(=O)[C@H]3C[C@@H]2C3(C)C)cc(OC(=O)[C@@H](N)C(C)C)c1OC(=O)[C@@H](N)C(C)C.Cl.Cl [SP-1154, (2S,2'S)-5-((E)-2-((1R,5S)-6,6-dimethyl-4-oxobicyclo[3.1.1]hept-2-en-2-yl)vinyl)-3-methoxy-1,2-phenylene bis(2-amino-3-methylbutanoate)-dihydrochloride]
VAT SUVmax (VAT inflammation; 18F-FDG PET/CT after 20 weeks of HFD, vs HFD): significantly reduced | VAT SUVmax, difference to normal mice (VAT inflammation; [12]): no significant difference | phosphorylation of Smad2/3 in VAT [1]: inhibited | serum total cholesterol ([2]; HFD vs HFD with SP-1154): no significant difference | level of ALT ([2]; serum, HFD-induced mice): improved | level of AST ([2]; serum, HFD-induced mice): improved | water solubility ([3]; water): high | GLUT4 expression (GLUT4): increased | macrophage infiltration into VAT [4]: significantly prevented | mRNA expression level of TGF-βR1 in VAT (TGF-βR1): no significant difference | liver steatosis score ([5]; H&E-stained liver, three-scale scoring): significantly reduced | liver weight ([5]; harvested liver): significantly reduced | insulin resistance (ITT) [6]: significantly improved | expression of CD68 in VAT (CD68): suppressed | glucose homeostasis (GTT) [7]: significantly improved | liver density [8]: significantly enhanced | HFD-induced body weight gain [9]: significantly attenuated | GLUT1 expression (GLUT1): decreased | conversion of prodrug to SP-8356 [10]: converted to SP-8356 very quickly | adipocyte size (adipocytes in VAT): significant reduction | CRP levels, difference to normal mice (C-reactive protein (CRP); [12]): no significant difference | levels of CRP (C-reactive protein (CRP); serum, HFD-induced mice, vs HFD): significantly suppressed | mRNA expression level of TGF-β1 in VAT (TGF-β1): no significant difference

COc1cc(C=CC2=CC(=O)[C@H]3C[C@@H]2C3(C)C)cc(O)c1O [SP-8356, (1S,5R)-4-(3,4-dihydroxy-5-methoxystyryl)-6,6-dimethylbicyclo[3.1.1]hept-3-en-2-one]
solubility in saline ([3]; saline): does not dissolve well in saline | efficacy when used as a suspension [11]: weak but significant
